The text below walks through data of patent publication US6391914B1, “Optically active aminopentane derivatives” (Fujimoto Brothers Co., Ltd., priority 1998, dated 2002).

In assay [1] the target is T1, monoamine oxidase type-B (MAO-B) (Mus musculus, UniProt Q8BW75).
T1 construct: the pellet was resuspended in the above buffer to be enzyme solution; from tissue; host or cells: whole brain of male C57Bl/6 mice, 40,000 g pellet
T1 sequence (Q8BW75 1-520): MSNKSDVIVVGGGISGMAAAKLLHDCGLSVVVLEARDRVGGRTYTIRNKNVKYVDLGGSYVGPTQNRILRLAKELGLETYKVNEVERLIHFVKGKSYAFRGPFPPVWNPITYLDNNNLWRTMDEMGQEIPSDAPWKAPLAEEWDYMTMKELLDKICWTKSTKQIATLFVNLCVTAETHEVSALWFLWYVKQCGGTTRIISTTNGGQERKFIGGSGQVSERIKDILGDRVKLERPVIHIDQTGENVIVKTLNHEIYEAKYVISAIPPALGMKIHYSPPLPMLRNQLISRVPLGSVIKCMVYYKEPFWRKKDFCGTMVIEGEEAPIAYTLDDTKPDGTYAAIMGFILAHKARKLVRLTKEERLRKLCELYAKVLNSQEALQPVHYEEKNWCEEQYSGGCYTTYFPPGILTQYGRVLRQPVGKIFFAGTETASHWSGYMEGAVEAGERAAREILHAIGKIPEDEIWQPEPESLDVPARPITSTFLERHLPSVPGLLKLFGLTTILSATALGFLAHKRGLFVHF
The experiment in a line: Mice brain MAO-B inhibition (14C-phenylethylamine). The settings on record: concentration of 10^−5 mol/L. The assay is classed as biochemical. The protocol:
After male C57B1/6 mice were decapitated, the whole brain was isolated immediately. The brain samples were weighed, and homogenized in 0.2 mol/L potassium phosphate buffer (pH 7.5) containing 1.0% EDTA-2Na by homogenizer. After the homogenate was centrifuged at 2,000 RPM for 20 min, the supernatant was centrifuged at 18,000 RPM (40,000 g) for 30 min. The pellet was resuspended, and further centrifuged in the same manner. Thereafter, the pellet was resuspended in the above buffer to be enzyme solution. All procedure was carried out at 4° C.
^14C-Labeled substrate (^14C-phenylethylamine) and enzyme solution from mice are mixed in test tube, incubated for 30 min at 37° C., and stopped the reaction with 20 μL of 6 mol/L Hcl. The reaction product was extracted with toluene-ethylacetate (1:1), and the radioactivity was measured using scintillation counter. Then, MAO-B inhibitory activity was calculated.

Assay [2] relates to brain tissues (striatum, substantia nigra, tuberculum olfactorium, locus coeruleus and raphe). The experiment in a line: Biogenic amines released from brain tissue after s.c. administration. The class given is in vivo, Wistar rats. The protocol: The method described in Life Sci., 56, 611-620 (1995) was used. After Wistar rats were decapitated, appropriate brain tissues (striatum, substantia nigra, tuberculum olfactorium, locus coeruleus and raphe) were isolated quickly and soaked in oxygenated (95% O2 and 5% CO2) Krebs' solution at 37° C. The composition of Krebs' solution (mmol/L) was as follows: NaCl 111, KCl 4.7, CaCl2 2.5, MgSO4 1.64, NaHCO3 25, KH2PO4 1.2, glucose 12 mg/L ascorbic acid and 20 mg/l EDTA-2Na. The preparations, submerged in one organ bath, were as follows: 1) four pieces of striatum (each halved), 2) four pieces of substantia nigra, 3) four pieces of tuberculum olfactorium, 4) eight pieces of locus coeruleus, 5) eight pieces of raphe. After incubating the tissue for 20 min, the Krebs' solution was exchanged. After the tissue was submerged for 20 min in Krebs' solution containing the compounds of the invention, the biogenic amine released during this period was quantified. The compounds of the invention, the (+)-isomer, the racemic compound and control compound, were respectively dissolved in saline, and subcutaneously administered 30 min before dissection of the brain samples. In the case of noradrenaline and dopamine, samples were purified on microcolumns (BDH Chemicals Ltd.) filled with 60 mg of alumina according to the method described in J. Pharmacol. Exp. Ther., 138, 360-372 (1962). In the case of serotonin, samples were purified on 15 mg Sephadex G-10 microcolumns (Pharmacia). Dopamine, noradrenaline and serotonin were quantified by high performance liquid chromatography (Waters 746 data module) with electrochemical detection (Waters 460 electrochemical detector). Waters Resolve 5μ Spherical C18 3.9×150 mm column was used as separating column and triethylamine-phosphate buffer (pH 5.2) containing 200/mg/L octaine sulfonate sodium and 18 mg/L EDTA-2Na with 6% acetonitrile, was used as mobile phase. The amount of appropriate amine released for 20 min was noted as nmol/g tissue. The differences among means were tested using Student's t-test. Significant level was set at P<0.05.

Molecules are shown by their SMILES. Structures can show the parent of a compound that is named as a salt.

For the molecule `CCCNC(CCC)Cc1cc2ccccc2o1.Cl` (single isomer, unassigned; (+)) [(+)-Isomer, (+)-1-(benzofuran-2-yl)-2-propylaminopentane hydrochloride], in assay [1], the “Mice brain MAO-B inhibitory activity” value is 1.7%. Further, in assay [2] (dose 0.0005 mg/kg s.c.), the “Amount of dopamine released, Striatum” value was 4.4 ± 0.13 nmol/g · tissue. 20 min; the “Amount of dopamine released, Substantia Nigraia” value (from here on “Amount … Substantia Nigraia”) was found to be 13.8 ± 0.25 nmol/g · tissue. 20 min; the “Amount of dopamine released, Tuberculum Olfactorium” value (from here on “Amount … Tuberculum Olfactorium”) is on record as 6.7 ± 0.06 nmol/g · tissue. 20 min; the “Amount of noradrenaline released, Locus Coeruleus” value (from here on “Amount of noradrenaline released”) turned out to be 10.3 ± 0.35 nmol/g · tissue. 20 min. Besides, the “Amount of serotonin released, Raphe” value in assay [2] (dose 0.0005 mg/kg s.c.) is reported as 1.785 ± 0.01 nmol/g · tissue. 20 min. In assay [2] (dose 0.0025 mg/kg s.c.), the “Amount of dopamine released, Striatum” value was 4.4 ± 0.10 nmol/g · tissue. 20 min; the “Amount … Substantia Nigraia” value was 8.4 ± 0.14 nmol/g · tissue. 20 min; the “Amount … Tuberculum Olfactorium” value is 4.8 ± 0.25 nmol/g · tissue. 20 min; the “Amount of noradrenaline released” value was determined as 7.4 ± 0.15 nmol/g · tissue. 20 min. The “Amount of serotonin released, Raphe” value in assay [2] (dose 0.0025 mg/kg s.c.) turned out to be 1.138 ± 0.05 nmol/g · tissue. 20 min. In assay [2] (dose 0.0500 mg/kg s.c.), the “Amount of dopamine released, Striatum” value worked out at 4.4 ± 0.17 nmol/g · tissue. 20 min; the “Amount … Substantia Nigraia” value worked out at 7.1 ± 0.24 nmol/g · tissue. 20 min; the “Amount … Tuberculum Olfactorium” value was 4.8 ± 0.18 nmol/g · tissue. 20 min; the “Amount of noradrenaline released” value came out at 4.4 ± 0.10 nmol/g · tissue. 20 min. In addition, the “Amount of serotonin released, Raphe” value in assay [2] (dose 0.0500 mg/kg s.c.) was found to be 0.642 ± 0.02 nmol/g · tissue. 20 min. In addition, in assay [2] (dose 0.1000 mg/kg s.c.), the “Amount of dopamine released, Striatum” value is 5.8 ± 0.21 nmol/g · tissue. 20 min; the “Amount … Substantia Nigraia” value was determined as 15.9 ± 0.25 nmol/g · tissue. 20 min; the “Amount … Tuberculum Olfactorium” value came to 7.3 ± 0.20 nmol/g · tissue. 20 min; the “Amount of noradrenaline released” value is 5.6 ± 0.25 nmol/g · tissue. 20 min. Besides, the “Amount of serotonin released, Raphe” value in assay [2] (dose 0.1000 mg/kg s.c.) was 0.381 ± 0.01 nmol/g · tissue. 20 min.
In the case of `CCCNC(CCC)Cc1cc2ccccc2o1.Cl` (racemic) [Racemic compound, (±)-1-(benzofuran-2-yl)-2-propylaminopentane hydrochloride], the inhibition at 10 µM in assay [1] (read-out: Mice brain MAO-B inhibitory activity) amounted to 22.9%. In assay [2] (dose 0.0100 mg/kg s.c.), the “Amount of dopamine released, Striatum” value was 5.3 ± 0.14 nmol/g · tissue. 20 min; the “Amount … Substantia Nigraia” value was 6.6 ± 0.04 nmol/g · tissue. 20 min; the “Amount … Tuberculum Olfactorium” value is given as 6.5 ± 0.20 nmol/g · tissue. 20 min; the “Amount of noradrenaline released” value was determined as 4.3 ± 0.20 nmol/g · tissue. 20 min. In addition, the “Amount of serotonin released, Raphe” value in assay [2] (dose 0.0100 mg/kg s.c.) amounted to 0.457 ± 0.04 nmol/g · tissue. 20 min.
As to `CCCNC(CCC)Cc1cc2ccccc2o1` (single isomer, unassigned; (-)) [The compound of the invention, (−)-1-(benzofuran-2-yl)-2-propylaminopentane hydrochloride], the “Mice brain MAO-B inhibitory activity” value in assay [1] turned out to be 4.7%. Moreover, in assay [2] (dose 0.0001 mg/kg s.c.), the “Amount of dopamine released, Striatum” value worked out at 4.7 ± 0.14 nmol/g · tissue. 20 min; the “Amount … Substantia Nigraia” value amounted to 14.8 ± 0.36 nmol/g · tissue. 20 min; the “Amount … Tuberculum Olfactorium” value came out at 7.2 ± 0.23 nmol/g · tissue. 20 min; the “Amount of noradrenaline released” value stood at 6.6 ± 0.10 nmol/g · tissue. 20 min. For the same molecule, the “Amount of serotonin released, Raphe” value in assay [2] (dose 0.0001 mg/kg s.c.) was determined as 1.040 ± 0.03 nmol/g · tissue. 20 min. Moreover, in assay [2] (dose 0.0005 mg/kg s.c.), the “Amount of dopamine released, Striatum” value was 4.8 ± 0.16 nmol/g · tissue. 20 min; the “Amount … Substantia Nigraia” value is recorded as 13.8 ± 0.23 nmol/g · tissue. 20 min; the “Amount … Tuberculum Olfactorium” value stood at 6.7 ± 0.08 nmol/g · tissue. 20 min; the “Amount of noradrenaline released” value was determined as 15.4 ± 0.55 nmol/g · tissue. 20 min. Further, in assay [2] (dose 0.0005 mg/kg s.c.), the “Amount of serotonin released, Raphe” value was 0.914 ± 0.03 nmol/g · tissue. 20 min. Besides, in assay [2] (dose 0.0025 mg/kg s.c.), the “Amount of dopamine released, Striatum” value was determined as 5.7 ± 0.19 nmol/g · tissue. 20 min; the “Amount … Substantia Nigraia” value is reported as 13.1 ± 0.21 nmol/g · tissue. 20 min; the “Amount … Tuberculum Olfactorium” value was determined as 6.9 ± 0.31 nmol/g · tissue. 20 min; the “Amount of noradrenaline released” value stood at 3.9 ± 0.05 nmol/g · tissue. 20 min. For the same molecule, the “Amount of serotonin released, Raphe” value in assay [2] (dose 0.0025 mg/kg s.c.) was 0.421 ± 0.03 nmol/g · tissue. 20 min. In assay [2] (dose 0.0500 mg/kg s.c.), the “Amount of dopamine released, Striatum” value worked out at 6.5 ± 0.09 nmol/g · tissue. 20 min; the “Amount … Substantia Nigraia” value stood at 10.9 ± 0.11 nmol/g · tissue. 20 min; the “Amount … Tuberculum Olfactorium” value turned out to be 7.7 ± 0.19 nmol/g · tissue. 20 min; the “Amount of noradrenaline released” value is reported as 4.3 ± 0.25 nmol/g · tissue. 20 min. Besides, in assay [2] (dose 0.0500 mg/kg s.c.), the “Amount of serotonin released, Raphe” value stood at 0.457 ± 0.01 nmol/g · tissue. 20 min.
